The conditions of this series: normal human subjects, measured over 24 hours.

Where two headings read alike, the source gives them in different places.

As for `C[C@@H](O)CCOC(=O)C[C@@H](C)O` [D-β-hydroxybutyrate-R 1,3-butanediol monoester], the “maximum plasma ketone concentration” value is given as 0.23 mM (single dose 140 mg/kg ketone ester in milk-based drink), 0.76 mM (single dose 357 mg/kg ketone ester in milk-based drink) and 3.42 mM (single dose 714 mg/kg ketone ester in milk-based drink).
